Laboratory results as given in patent US11530229B2, “Cyano cyclobutyl compounds for CBL-B inhibition and uses thereof” (Nurix Therapeutics, Inc., priority 2019, dated 2022).
Like-named read-outs stand apart in the source and are kept apart here.

Assays:
[1] = system: primary human total T-cells; test: T-cell activation, CD25 surface staining, Biological Example 2; assay type: cell-based; details: 48 hours, fold change over baseline; for fold induction at 0.3 µM: 0.3 μM inhibitor; for fold induction at 1 µM: 1 μM inhibitor; for fold induction at 3 µM: 3 μM inhibitor
[2] = system: primary human total T-cells; test: T-cell activation, IL-2 secretion, Biological Example 2; assay type: cell-based; details: 48 hours, fold change over baseline; for fold induction at 0.3 µM: 0.3 μM inhibitor; for fold induction at 1 µM: 1 μM inhibitor; for fold induction at 3 µM: 3 μM inhibitor
[3] = molecular target: Cbl-b (Homo sapiens (Human), UniProt Q13191); test: Cbl-b displacement assay (Cbl-b inhibition assay), Biological Example 1; assay type: binding
Protocol: Candidate compounds were evaluated for their ability to bind and inhibit Cbl-b, an E3 ubiquitin-protein ligase, as evidenced by their ability to displace a fluorophore-labeled probe (Example 59) bound to Cbl-b.
The ability of candidate compounds to displace a known inhibitor and thereby inhibit Cbl-b activity was measured by monitoring the interaction of Cbl-b with a fluorophore-labeled probe in the presence of the candidate compound. A truncated variant of Cbl-b (UniProt number Q13191; SEQ ID NO:1) containing an Avitag at its N-terminus was co-expressed with BirA biotin ligase and purified using a standard protocol (see Dou et al., Nature Structural and Molecular Biology, 8: 982-987, 2013; Avidity LLC).
Cbl-b Amino Acid Residues 36-427:
Fluorescently-labeled inhibitor probe was synthesized and tagged with BODIPY FL (Example 59). Cbl-b displacement assays were performed in a 384-well plate at room temperature in a 10 μL reaction volume by pre-incubating 0.5 nM Cbl-b or 0.125 nM Cbl-b (final concentration, indicated as “High” and “Low”, respectively) in an assay buffer containing 20 mM HEPES pH 7.5, 150 mM NaCl, 0.01% Triton X-100, 0.01% BSA and 0.5 mM TCEP in the presence of a candidate compound in 1% DMSO (final concentration) for 1 hour. After incubation in the presence of the candidate compound, the plate was incubated for an additional 1 hour in the presence of an approximate EC40 binding saturation consisting of 150 nM fluorescently-labeled inhibitor probe and 2 nM Streptavidin-Terbium (Cisbio) (final concentrations). Following the 1 hour incubation, the plates were read for TR-FRET signal at […] using an Envision plate reader (Perkin Elmer).

[4] = anti-CD3 and anti-CD28 co-stimulation
[5] = anti-CD3 and anti-CD28 co-stimulation, read-out: CD25 staining CD3/CD28 1 μM
[6] = anti-CD3 stimulation alone, read-out: CD25 staining CD3 1 μM
[7] = anti-CD3 and anti-CD28 co-stimulation, read-out: IL-2 secretion CD3/CD28 1 μM
[8] = anti-CD3 stimulation alone, read-out: IL-2 secretion CD3 1 μM
[9] = 0.125 nM Cbl-b final concentration (Low), read-out: Cbl-b activity IC50 (Low)

Cbl-b, sequence (Q13191 36-427): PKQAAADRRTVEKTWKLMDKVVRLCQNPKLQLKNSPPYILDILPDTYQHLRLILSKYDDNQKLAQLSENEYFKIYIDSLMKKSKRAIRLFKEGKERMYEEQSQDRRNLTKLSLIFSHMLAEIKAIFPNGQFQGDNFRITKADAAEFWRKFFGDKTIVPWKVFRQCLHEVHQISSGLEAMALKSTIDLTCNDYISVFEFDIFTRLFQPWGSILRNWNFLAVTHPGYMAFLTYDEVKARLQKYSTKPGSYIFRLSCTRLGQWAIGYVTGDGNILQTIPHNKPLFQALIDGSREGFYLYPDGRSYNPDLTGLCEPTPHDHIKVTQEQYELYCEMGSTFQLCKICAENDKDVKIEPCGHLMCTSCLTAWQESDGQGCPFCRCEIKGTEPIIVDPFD

Compound: Cn1cnnc1C[C@]1(c2cccc(N3Cc4c(cc(CN5CCC6C(C5)C6(F)F)cc4C(F)(F)F)C3=O)c2)C[C@H](C#N)C1 (stereo partly shown) [Compound 27, (1r,3r)-3-(3-(6-((7,7-difluoro-3-azabicyclo[4.1.0]heptan-3-yl)methyl)-1-oxo-4-(trifluoromethyl)isoindolin-2-yl)phenyl)-3-((4-methyl-4H-1,2,4-triazol-3-yl)methyl)cyclobutane-1-carbonitrile]
- fold induction at 0.3 µM [1, 4]: ≤ 1.24
- fold induction at 1 µM [1, 5]: ≤ 1.24
- fold induction at 1 µM [1, 6]: ≤ 1
- fold induction at 3 µM ([1]; anti-CD3 stimulation alone): ≤ 1
- fold induction at 0.3 µM [2, 4]: ≤ 15
- fold induction at 1 µM [2, 7]: ≤ 15
- fold induction at 1 µM [2, 8]: < 0.4
- fold induction at 3 µM ([2]; anti-CD3 stimulation alone): 0.4 to 0.85
- IC50 [3, 9]: 2 to 5 nM

Compound: Cn1cnnc1C[C@]1(c2cccc(N3Cc4c(cc(CN5CCc6ncccc6C5)cc4C(F)(F)F)C3=O)c2)C[C@H](C#N)C1 [Compound 28, (1r,3r)-3-(3-(6-((7,8-dihydro-1,6-naphthyridin-6(5H)-yl)methyl)-1-oxo-4-(trifluoromethyl)isoindolin-2-yl)phenyl)-3-((4-methyl-4H-1,2,4-triazol-3-yl)methyl)cyclobutane-1-carbonitrile]
- fold induction at 0.3 µM [1, 4]: ≤ 1.24
- fold induction at 1 µM [1, 5]: ≤ 1.24
- fold induction at 1 µM [1, 6]: ≤ 1
- fold induction at 3 µM ([1]; anti-CD3 stimulation alone): ≤ 1
- fold induction at 0.3 µM [2, 4]: ≤ 15
- fold induction at 1 µM [2, 7]: ≤ 15
- fold induction at 1 µM [2, 8]: < 0.4
- fold induction at 3 µM ([2]; anti-CD3 stimulation alone): < 0.4
- IC50 [3, 9]: 2 to 5 nM

Compound: Cn1cnnc1C[C@]1(c2cccc(N3Cc4c(cc(CN5CCCOCC5)cc4C(F)(F)F)C3=O)c2)C[C@H](C#N)C1 [Compound 29, (1r,3r)-3-(3-(6-((1,4-oxazepan-4-yl)methyl)-1-oxo-4-(trifluoromethyl)isoindolin-2-yl)phenyl)-3-((4-methyl-4H-1,2,4-triazol-3-yl)methyl)cyclobutane-1-carbonitrile]
- fold induction at 0.3 µM [1, 4]: 1.24 to 1.39
- fold induction at 1 µM [1, 5]: 1.24 to 1.39
- fold induction at 1 µM [1, 6]: > 1.15
- fold induction at 3 µM ([1]; anti-CD3 stimulation alone): 1 to 1.15
- fold induction at 0.3 µM [2, 4]: ≤ 15
- fold induction at 1 µM [2, 7]: ≤ 15
- fold induction at 1 µM [2, 8]: < 0.4
- fold induction at 3 µM ([2]; anti-CD3 stimulation alone): 0.4 to 0.85
- IC50 [3, 9]: 2 to 5 nM

Compound: Cn1cnnc1C[C@]1(c2cccc(N3Cc4c(cc(CN5CCOCC6(CC6)C5)cc4C(F)(F)F)C3=O)c2)C[C@H](C#N)C1 [Compound 30, (1r,3r)-3-(3-(6-((5-oxa-8-azaspiro[2.6]nonan-8-yl)methyl)-1-oxo-4-(trifluoromethyl)isoindolin-2-yl)phenyl)-3-((4-methyl-4H-1,2,4-triazol-3-yl)methyl)cyclobutane-1-carbonitrile]
- fold induction at 0.3 µM [1, 4]: ≤ 1.24
- fold induction at 1 µM [1, 5]: ≤ 1.24
- fold induction at 1 µM [1, 6]: ≤ 1
- fold induction at 3 µM ([1]; anti-CD3 stimulation alone): 1 to 1.15
- fold induction at 0.3 µM [2, 4]: ≤ 15
- fold induction at 1 µM [2, 7]: ≤ 15
- fold induction at 1 µM [2, 8]: < 0.4
- fold induction at 3 µM ([2]; anti-CD3 stimulation alone): < 0.4
- IC50 [3, 9]: 2 to 5 nM

Compound: Cn1cnnc1C[C@]1(c2cccc(N3Cc4c(cc(CNC5CCC(C)(C)C5)cc4C(F)(F)F)C3=O)c2)C[C@H](C#N)C1 (stereo partly shown) [Compound 31, (1r,3r)-3-(3-(6-(((3,3-dimethylcyclopentyl)amino)methyl)-1-oxo-4-(trifluoromethyl)isoindolin-2-yl)phenyl)-3-((4-methyl-4H-1,2,4-triazol-3-yl)methyl)cyclobutane-1-carbonitrile]
- fold induction at 0.3 µM [1, 4]: > 1.39
- fold induction at 1 µM [1, 5]: > 1.39
- fold induction at 1 µM [1, 6]: > 1.15
- fold induction at 3 µM ([1]; anti-CD3 stimulation alone): > 1.15
- fold induction at 0.3 µM [2, 4]: > 20
- fold induction at 1 µM [2, 7]: > 20
- fold induction at 1 µM [2, 8]: > 0.85
- fold induction at 3 µM ([2]; anti-CD3 stimulation alone): > 0.85
- IC50 [3, 9]: < 1 nM
- IC50 ([3]; read-out: IC50 values in the Cbl-b inhibition assay of Biological Example 1): < 1 nM

Compound: CN(Cc1cc2c(c(C(F)(F)F)c1)CN(c1cccc([C@]3(Cc4nncn4C)C[C@@H](C#N)C3)c1)C2=O)C1CCC(F)(F)C1 (stereo partly shown) [Compound 32, (1r,3r)-3-(3-(6-(((3,3-difluorocyclopentyl)(methyl)amino)methyl)-1-oxo-4-(trifluoromethyl)isoindolin-2-yl)phenyl)-3-((4-methyl-4H-1,2,4-triazol-3-yl)methyl)cyclobutane-1-carbonitrile]
- fold induction at 0.3 µM [1, 4]: > 1.39
- fold induction at 1 µM [1, 5]: > 1.39
- fold induction at 1 µM [1, 6]: > 1.15
- fold induction at 3 µM ([1]; anti-CD3 stimulation alone): > 1.15
- fold induction at 0.3 µM [2, 4]: > 20
- fold induction at 1 µM [2, 7]: > 20
- fold induction at 1 µM [2, 8]: > 0.85
- fold induction at 3 µM ([2]; anti-CD3 stimulation alone): > 0.85
- IC50 [3, 9]: 2 to 5 nM

Compound: CC1CN(Cc2cc3c(c(C(F)(F)F)c2)CN(c2cccc([C@]4(Cc5nncn5C)C[C@@H](C#N)C4)c2)C3=O)CCCO1 (stereo partly shown) [Compound 33, (1r,3r)-3-(3-(6-((2-methyl-1,4-oxazepan-4-yl)methyl)-1-oxo-4-(trifluoromethyl)isoindolin-2-yl)phenyl)-3-((4-methyl-4H-1,2,4-triazol-3-yl)methyl)cyclobutane-1-carbonitrile]
- fold induction at 0.3 µM [1, 4]: ≤ 1.24
- fold induction at 1 µM [1, 5]: ≤ 1.24
- fold induction at 1 µM [1, 6]: ≤ 1
- fold induction at 3 µM ([1]; anti-CD3 stimulation alone): ≤ 1
- fold induction at 0.3 µM [2, 4]: ≤ 15
- fold induction at 1 µM [2, 7]: ≤ 15
- fold induction at 1 µM [2, 8]: 0.4 to 0.85
- fold induction at 3 µM ([2]; anti-CD3 stimulation alone): 0.4 to 0.85
- IC50 [3, 9]: 2 to 5 nM

Compound: CC1CCN(Cc2cc3c(c(C(F)(F)F)c2)CN(c2cccc([C@]4(Cc5nncn5C)C[C@@H](C#N)C4)c2)C3=O)CC(C)O1 (stereo partly shown) [Compound 34, (1r,3r)-3-(3-(6-((2,7-dimethyl-1,4-oxazepan-4-yl)methyl)-1-oxo-4-(trifluoromethyl)isoindolin-2-yl)phenyl)-3-((4-methyl-4H-1,2,4-triazol-3-yl)methyl)cyclobutane-1-carbonitrile]
- fold induction at 0.3 µM [1, 4]: ≤ 1.24
- fold induction at 1 µM [1, 5]: ≤ 1.24
- fold induction at 1 µM [1, 6]: ≤ 1
- fold induction at 3 µM ([1]; anti-CD3 stimulation alone): ≤ 1
- fold induction at 0.3 µM [2, 4]: ≤ 15
- fold induction at 1 µM [2, 7]: ≤ 15
- fold induction at 1 µM [2, 8]: < 0.4
- fold induction at 3 µM ([2]; anti-CD3 stimulation alone): 0.4 to 0.85
- IC50 [3, 9]: 2 to 5 nM

Compound: CC1COCCN(Cc2cc3c(c(C(F)(F)F)c2)CN(c2cccc([C@]4(Cc5nncn5C)C[C@@H](C#N)C4)c2)C3=O)C1 (stereo partly shown) [Compound 35, (1r,3r)-3-(3-(6-((6-methyl-1,4-oxazepan-4-yl)methyl)-1-oxo-4-(trifluoromethyl)isoindolin-2-yl)phenyl)-3-((4-methyl-4H-1,2,4-triazol-3-yl)methyl)cyclobutane-1-carbonitrile]
- fold induction at 0.3 µM [1, 4]: 1.24 to 1.39
- fold induction at 1 µM [1, 5]: 1.24 to 1.39
- fold induction at 1 µM [1, 6]: 1 to 1.15
- fold induction at 3 µM ([1]; anti-CD3 stimulation alone): 1 to 1.15
- fold induction at 0.3 µM [2, 4]: 15 to 20
- fold induction at 1 µM [2, 7]: 15 to 20
- fold induction at 1 µM [2, 8]: 0.4 to 0.85
- fold induction at 3 µM ([2]; anti-CD3 stimulation alone): 0.4 to 0.85
- IC50 [3, 9]: 2 to 5 nM

Compound: CC1CCN(Cc2cc3c(c(C(F)(F)F)c2)CN(c2cccc([C@]4(Cc5nncn5C)C[C@@H](C#N)C4)c2)C3=O)CCO1 (stereo partly shown) [Compound 36, (1r,3r)-3-(3-(6-((7-methyl-1,4-oxazepan-4-yl)methyl)-1-oxo-4-(trifluoromethyl)isoindolin-2-yl)phenyl)-3-((4-methyl-4H-1,2,4-triazol-3-yl)methyl)cyclobutane-1-carbonitrile]
- fold induction at 0.3 µM [1, 4]: 1.24 to 1.39
- fold induction at 1 µM [1, 5]: > 1.39
- fold induction at 1 µM [1, 6]: 1 to 1.15
- fold induction at 3 µM ([1]; anti-CD3 stimulation alone): 1 to 1.15
- fold induction at 0.3 µM [2, 4]: ≤ 15
- fold induction at 1 µM [2, 7]: 15 to 20
- fold induction at 1 µM [2, 8]: < 0.4
- fold induction at 3 µM ([2]; anti-CD3 stimulation alone): 0.4 to 0.85
- IC50 [3, 9]: 2 to 5 nM
